Source: US10183014B2, “Ocular formulations for drug-delivery and protection of the anterior segment of the eye” (PanOptica, Inc., priority 2014, dated 2019)
Several values for one entry are separate records, joined by “and”; a condition that tells them apart may be missing. Equal entries are not always repeated. Where two headings read alike, the source gives them in different places.

Tests used:
[1] = Ocular pharmacokinetics of formulations, Example 20-4; type: in vivo, Dutch Belted rabbits; settings: Day 5, 1 hr post dose
Procedure: The study design (Table 18-1) consisted of forty-nine (49) Dutch Belted rabbits, each receiving a 30 μL bilateral topical ocular dose.
Ocular sampling occurred one hour following the first daily dose on Day 5 for all groups. Whole blood samples using K2EDTA as an anticoagulant were collected from all animals on Day 5, 1 hour post dose. The whole blood was placed on ice until samples were spun in a centrifuge to separate the plasma. Aqueous humor, conjunctiva, cornea, central retina, peripheral retina, central choroid, and peripheral choroid samples were collected following necropsy. Samples were then frozen at −70° C. or lower. For all Groups 1-16, plasma, central retina, central choroid, and cornea samples were assayed for PAN-90806.

[2] = biological target: FGR (Homo sapiens, UniProt P09769); assay: In vitro inhibition of tyrosine kinases; type: biochemical; settings: read-out: Mean % Inhibition at 1 μM Compound-I; 1 μM (568.9 ng/mL)
Chain of FGR (P09769 whole entry, species assumed): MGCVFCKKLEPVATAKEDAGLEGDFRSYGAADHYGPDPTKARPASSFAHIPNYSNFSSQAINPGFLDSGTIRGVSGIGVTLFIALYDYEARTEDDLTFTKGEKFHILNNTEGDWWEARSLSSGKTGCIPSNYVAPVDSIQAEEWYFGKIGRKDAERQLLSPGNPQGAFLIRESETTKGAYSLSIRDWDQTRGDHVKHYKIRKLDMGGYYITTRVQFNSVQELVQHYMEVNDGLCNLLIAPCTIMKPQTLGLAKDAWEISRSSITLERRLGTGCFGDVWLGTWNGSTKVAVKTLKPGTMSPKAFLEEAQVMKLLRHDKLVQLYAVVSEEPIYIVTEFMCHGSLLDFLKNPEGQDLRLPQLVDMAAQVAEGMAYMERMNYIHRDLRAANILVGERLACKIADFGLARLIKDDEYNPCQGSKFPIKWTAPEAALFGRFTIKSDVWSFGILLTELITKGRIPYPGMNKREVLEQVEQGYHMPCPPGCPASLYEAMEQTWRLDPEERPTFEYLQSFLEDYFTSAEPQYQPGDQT

[3] = test system: HUVECs; assay: Inhibition of VEGF-stimulated mitogenesis in HUVECs; type: cell-based; settings: Homo sapiens, HUVEC
[4] = biological target: KDR (VEGFR-2) (Homo sapiens, UniProt P35968); assay: In vitro inhibition of tyrosine kinases; type: biochemical; settings: 300 nM (170.67 ng/mL)
Chain of KDR (VEGFR-2) (P35968 20-1356): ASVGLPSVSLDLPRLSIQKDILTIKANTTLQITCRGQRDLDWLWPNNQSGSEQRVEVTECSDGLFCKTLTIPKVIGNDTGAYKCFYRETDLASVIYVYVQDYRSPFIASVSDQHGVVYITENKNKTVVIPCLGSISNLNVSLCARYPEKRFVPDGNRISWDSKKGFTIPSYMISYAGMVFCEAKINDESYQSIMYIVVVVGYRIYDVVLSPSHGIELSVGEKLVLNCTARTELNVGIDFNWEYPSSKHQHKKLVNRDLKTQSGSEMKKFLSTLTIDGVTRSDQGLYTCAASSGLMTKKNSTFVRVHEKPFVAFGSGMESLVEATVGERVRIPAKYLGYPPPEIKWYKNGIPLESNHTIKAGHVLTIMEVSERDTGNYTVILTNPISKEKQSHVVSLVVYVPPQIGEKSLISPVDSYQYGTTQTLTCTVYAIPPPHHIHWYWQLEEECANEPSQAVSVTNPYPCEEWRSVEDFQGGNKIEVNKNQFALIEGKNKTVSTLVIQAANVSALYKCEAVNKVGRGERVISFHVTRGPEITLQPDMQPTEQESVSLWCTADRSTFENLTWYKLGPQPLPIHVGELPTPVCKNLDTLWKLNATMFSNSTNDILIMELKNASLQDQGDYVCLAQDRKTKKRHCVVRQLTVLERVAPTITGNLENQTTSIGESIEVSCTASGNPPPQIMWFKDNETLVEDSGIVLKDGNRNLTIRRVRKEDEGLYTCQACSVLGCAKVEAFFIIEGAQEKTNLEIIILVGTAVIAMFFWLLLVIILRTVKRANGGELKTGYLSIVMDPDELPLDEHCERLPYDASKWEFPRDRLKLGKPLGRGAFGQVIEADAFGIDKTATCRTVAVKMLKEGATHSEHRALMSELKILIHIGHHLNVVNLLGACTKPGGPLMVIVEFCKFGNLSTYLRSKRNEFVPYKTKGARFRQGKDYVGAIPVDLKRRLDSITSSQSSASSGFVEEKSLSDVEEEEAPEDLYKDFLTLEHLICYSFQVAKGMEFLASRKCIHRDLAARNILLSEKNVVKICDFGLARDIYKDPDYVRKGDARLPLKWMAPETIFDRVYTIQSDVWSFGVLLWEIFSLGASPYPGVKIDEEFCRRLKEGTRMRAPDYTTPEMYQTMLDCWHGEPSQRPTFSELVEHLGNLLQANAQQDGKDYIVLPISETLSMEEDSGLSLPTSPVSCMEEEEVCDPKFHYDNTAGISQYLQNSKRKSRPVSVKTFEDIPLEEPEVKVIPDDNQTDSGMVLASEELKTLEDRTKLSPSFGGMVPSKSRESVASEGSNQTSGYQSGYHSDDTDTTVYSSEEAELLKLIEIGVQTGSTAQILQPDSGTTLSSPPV

[5] = biological target: FGFR-2 (Homo sapiens, UniProt P21802); assay: In vitro inhibition of tyrosine kinases; type: biochemical
Chain of FGFR-2 (P21802 22-821, species assumed): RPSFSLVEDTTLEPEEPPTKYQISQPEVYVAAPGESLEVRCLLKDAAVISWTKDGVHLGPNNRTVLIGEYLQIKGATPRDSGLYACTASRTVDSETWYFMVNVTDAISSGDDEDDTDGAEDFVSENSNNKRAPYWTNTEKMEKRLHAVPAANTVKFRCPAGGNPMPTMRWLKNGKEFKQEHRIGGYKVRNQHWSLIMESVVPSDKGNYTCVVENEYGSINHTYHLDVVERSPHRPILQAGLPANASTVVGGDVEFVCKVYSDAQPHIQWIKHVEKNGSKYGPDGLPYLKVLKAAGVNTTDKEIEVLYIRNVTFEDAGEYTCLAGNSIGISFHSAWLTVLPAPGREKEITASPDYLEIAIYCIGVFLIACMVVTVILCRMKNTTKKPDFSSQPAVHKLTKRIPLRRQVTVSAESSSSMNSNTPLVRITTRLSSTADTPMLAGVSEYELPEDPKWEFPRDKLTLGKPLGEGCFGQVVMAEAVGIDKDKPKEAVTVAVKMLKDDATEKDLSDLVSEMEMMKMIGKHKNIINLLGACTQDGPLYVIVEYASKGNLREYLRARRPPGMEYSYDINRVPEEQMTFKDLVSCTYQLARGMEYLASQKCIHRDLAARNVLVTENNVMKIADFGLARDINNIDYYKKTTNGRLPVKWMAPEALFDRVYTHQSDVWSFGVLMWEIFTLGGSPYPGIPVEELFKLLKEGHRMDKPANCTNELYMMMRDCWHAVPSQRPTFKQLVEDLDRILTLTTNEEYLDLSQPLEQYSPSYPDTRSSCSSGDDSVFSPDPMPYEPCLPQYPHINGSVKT

With `Cl.NC(=O)c1c(OCc2c(F)cc(Br)cc2F)nsc1NC(=O)NCCCCN1CCCC1` [Compound-I, 3-[(4-bromo-2,6-difluorophenyl)methoxy]-5-[[[[4-(1-pyrrolidinyl)butyl]amino]carbonyl]amino]-4-isothiazolecarboxamide hydrochloride] the concentration at 1 h ([1]; Dutch Belted, rabbit, central retina, topical, 30 μL per eye of 6 mg/mL suspension, Group 6: 6 mg/mL Salt suspension, PSD 30 μm/XL, TRIS 0.60%, glycerol 2%, HEC 0.2%, HPMC 0.08%, VitK3 1 μM, pH 6, QD, read-out: Central Retina concentration) was 136 nM, the concentration at 1 h ([1]; Dutch Belted, rabbit, cornea, topical, 0.3 mg/mL (30 μL per eye, bilateral), pH 6, Group 1: 0.3 mg/mL Salt, pH 6, BID, read-out: Cornea concentration) was 3330 nM and the concentration at 1 h ([1]; Dutch Belted, rabbit, cornea, topical, 1 mg/mL (30 μL per eye, bilateral), pH 6, Group 2: 1 mg/mL Salt, eye drops solution (control), pH 6, QD, read-out: Cornea concentration) was 7060 nM. It also gave a concentration at 1 h ([1]; Dutch Belted, rabbit, cornea, topical, 4 mg/mL (30 μL per eye, bilateral), pH 6, Group 3: 4 mg/mL Salt, eye drops solution (control), pH 6, QD, read-out: Cornea concentration) of 15900 nM, a concentration at 1 h ([1]; Dutch Belted, rabbit, cornea, topical, 4 mg/mL (30 μL per eye, bilateral), Group 16: 4 mg/mL Salt suspension, PSD 30 μm/XL, TRIS 0.60%, glycerol 2%, HEC 0.2%, HPMC 0.08%, VitK3 1 μM, pH 7, QD, read-out: Cornea concentration) of 14700 nM and a concentration at 1 h ([1]; Dutch Belted, rabbit, cornea, topical, 30 μL per eye of 6 mg/mL suspension, QD, pH 6, Group 6: 6 mg/mL Salt suspension, PSD 30 μm/XL, TRIS 0.60%, glycerol 2%, HEC 0.2%, HPMC 0.08%, VitK3 1 μM, pH 6, QD, read-out: Cornea concentration) of 14400 nM. It also gave a concentration at 1 h ([1]; Dutch Belted, rabbit, plasma, topical, 1 mg/mL (30 μL per eye, bilateral), pH 6, Group 2: 1 mg/mL Salt, eye drops solution (control), pH 6, QD, read-out: Plasma concentration) of 2.67 nM, a concentration at 1 h ([1]; Dutch Belted, rabbit, plasma, topical, 4 mg/mL (30 μL per eye, bilateral), pH 6, Group 3: 4 mg/mL Salt, eye drops solution (control), pH 6, QD, read-out: Plasma concentration) of 4.5 nM and a concentration at 1 h ([1]; Dutch Belted, rabbit, plasma, topical, 30 μL per eye of 4 mg/mL suspension, Group 7: 4 mg/mL Salt suspension, PSD 30 μm/XL, TRIS 0.60%, glycerol 2%, HEC 0.3%, Tylox 0.04%, VitK3 1 μM, pH 6, QD, read-out: Plasma concentration) of 5.56 nM. The concentration at 1 h ([1]; Dutch Belted, rabbit, plasma, topical, 30 μL per eye of 6 mg/mL suspension, QD, pH 6, Group 6: 6 mg/mL Salt suspension, PSD 30 μm/XL, TRIS 0.60%, glycerol 2%, HEC 0.2%, HPMC 0.08%, VitK3 1 μM, pH 6, QD, read-out: Plasma concentration) was 9.98 nM, the Plasma concentration ([1]; Group 1: 0.3 mg/mL Salt, pH 6, BID, LLOQ = 0.00188 μM) was “<LLOQ” and the “Central Choroid concentration” value ([1]; Group 1: 0.3 mg/mL Salt, pH 6, BID, LLOQ = 0.0563 μM) was “<LLOQ”. The concentration at 1 h ([1]; Group 7: 4 mg/mL Salt suspension, PSD 30 μm/XL, TRIS 0.60%, glycerol 2%, HEC 0.3%, Tylox 0.04%, VitK3 1 μM, pH 6, QD, read-out: Central Retina concentration) was 69.7 nM, the Plasma concentration ([1]; Group 8: 4 mg/mL Salt suspension, PSD 30 μm/XL, TRIS 0.60%, glycerol 2%, HEC 0.2%, Tylox 0.04%, VitK3 1 μM, pH 6, QD) was 6.62 nM and the concentration at 1 h ([1]; Group 8: 4 mg/mL Salt suspension, PSD 30 μm/XL, TRIS 0.60%, glycerol 2%, HEC 0.2%, Tylox 0.04%, VitK3 1 μM, pH 6, QD, read-out: Central Choroid concentration) was 152 nM. It also gave a concentration at 1 h ([1]; Group 8: 4 mg/mL Salt suspension, PSD 30 μm/XL, TRIS 0.60%, glycerol 2%, HEC 0.2%, Tylox 0.04%, VitK3 1 μM, pH 6, QD, read-out: Central Retina concentration) of 90.1 nM, a Plasma concentration ([1]; Group 9: 4 mg/mL Salt suspension, PSD 30 μm/XL, TRIS 0.60%, glycerol 2%, HEC 0.3%, Tylox 0.04%, VitK3 1 μM, pH 7, QD) of 7.38 nM and a concentration at 1 h ([1]; Group 9: 4 mg/mL Salt suspension, PSD 30 μm/XL, TRIS 0.60%, glycerol 2%, HEC 0.3%, Tylox 0.04%, VitK3 1 μM, pH 7, QD, read-out: Central Retina concentration) of 102 nM. For the same compound, the Plasma concentration ([1]; Group 10: 4 mg/mL Salt suspension, PSD 30 μm/XL, TRIS 0.60%, glycerol 2%, HEC 0.2%, Tylox 0.04%, VitK3 1 μM, pH 7, QD) was 5.28 nM, the concentration at 1 h ([1]; Group 10: 4 mg/mL Salt suspension, PSD 30 μm/XL, TRIS 0.60%, glycerol 2%, HEC 0.2%, Tylox 0.04%, VitK3 1 μM, pH 7, QD, read-out: Central Choroid concentration) was 166 nM and the concentration at 1 h ([1]; Group 10: 4 mg/mL Salt suspension, PSD 30 μm/XL, TRIS 0.60%, glycerol 2%, HEC 0.2%, Tylox 0.04%, VitK3 1 μM, pH 7, QD, read-out: Central Retina concentration) was 50.2 nM. For the same compound, the Plasma concentration ([1]; Group 11: 4 mg/mL Salt suspension, PSD 30 μm/XL, TRIS 0.60%, glycerol 2%, HEC 0.3%, HPMC 0.08%, VitK3 1 μM, pH 6, QD) was 4.65 nM, the concentration at 1 h ([1]; Group 11: 4 mg/mL Salt suspension, PSD 30 μm/XL, TRIS 0.60%, glycerol 2%, HEC 0.3%, HPMC 0.08%, VitK3 1 μM, pH 6, QD, read-out: Central Choroid concentration) was 154 nM and the concentration at 1 h ([1]; Group 11: 4 mg/mL Salt suspension, PSD 30 μm/XL, TRIS 0.60%, glycerol 2%, HEC 0.3%, HPMC 0.08%, VitK3 1 μM, pH 6, QD, read-out: Central Retina concentration) was 79.6 nM. The Plasma concentration ([1]; Group 12: 4 mg/mL Salt suspension, PSD 30 μm/XL, TRIS 0.60%, glycerol 2%, HEC 0.2%, HPMC 0.08%, VitK3 1 μM, pH 6, QD) was 3.66 nM, the concentration at 1 h ([1]; Group 12: 4 mg/mL Salt suspension, PSD 30 μm/XL, TRIS 0.60%, glycerol 2%, HEC 0.2%, HPMC 0.08%, VitK3 1 μM, pH 6, QD, read-out: Central Choroid concentration) was 137 nM and the concentration at 1 h ([1]; Group 12: 4 mg/mL Salt suspension, PSD 30 μm/XL, TRIS 0.60%, glycerol 2%, HEC 0.2%, HPMC 0.08%, VitK3 1 μM, pH 6, QD, read-out: Central Retina concentration) was 49 nM. For the same compound, the Plasma concentration ([1]; Group 13: 4 mg/mL Salt suspension, PSD Native (≈50) μm/XXL, TRIS 0.60%, glycerol 2%, HEC 0.2%, HPMC 0.08%, VitK3 1 μM, pH 6, QD) was 5.24 nM, the concentration at 1 h ([1]; Group 13: 4 mg/mL Salt suspension, PSD Native (≈50) μm/XXL, TRIS 0.60%, glycerol 2%, HEC 0.2%, HPMC 0.08%, VitK3 1 μM, pH 6, QD, read-out: Central Choroid concentration) was 234 nM and the concentration at 1 h ([1]; Group 13: 4 mg/mL Salt suspension, PSD Native (≈50) μm/XXL, TRIS 0.60%, glycerol 2%, HEC 0.2%, HPMC 0.08%, VitK3 1 μM, pH 6, QD, read-out: Central Retina concentration) was 67.7 nM. It also gave a Plasma concentration ([1]; Group 14: 4 mg/mL Salt suspension, PSD 3 μm/Large, TRIS 0.60%, glycerol 2%, HEC 0.2%, HPMC 0.08%, VitK3 1 μM, pH 6, QD) of 4.99 nM, a concentration at 1 h ([1]; Group 14: 4 mg/mL Salt suspension, PSD 3 μm/Large, TRIS 0.60%, glycerol 2%, HEC 0.2%, HPMC 0.08%, VitK3 1 μM, pH 6, QD, read-out: Central Choroid concentration) of 241 nM and a concentration at 1 h ([1]; Group 14: 4 mg/mL Salt suspension, PSD 3 μm/Large, TRIS 0.60%, glycerol 2%, HEC 0.2%, HPMC 0.08%, VitK3 1 μM, pH 6, QD, read-out: Central Retina concentration) of 99.2 nM. For the same compound, the Plasma concentration ([1]; Group 15: 4 mg/mL Salt suspension, PSD 30 μm/XL, TRIS 0.60%, glycerol 2%, HEC 0.3%, HPMC 0.08%, VitK3 1 μM, pH 7, QD) was 3.25 nM, the concentration at 1 h ([1]; Group 15: 4 mg/mL Salt suspension, PSD 30 μm/XL, TRIS 0.60%, glycerol 2%, HEC 0.3%, HPMC 0.08%, VitK3 1 μM, pH 7, QD, read-out: Central Choroid concentration) was 200 nM and the concentration at 1 h ([1]; Group 15: 4 mg/mL Salt suspension, PSD 30 μm/XL, TRIS 0.60%, glycerol 2%, HEC 0.3%, HPMC 0.08%, VitK3 1 μM, pH 7, QD, read-out: Central Retina concentration) was 53.2 nM. The inhibition at 1 µM [2] was 91%, the IC50 [3] was 14.1 nM and 0.008 µg/mL and the “Mean % Inhibition at 300 nM Compound-I” value [4] was “completely inhibited”. It also gave an inhibition at 0.3 µM ([5]; read-out: Mean % Inhibition at 300 nM Compound-I, 300 nM (170.67 ng/mL)) of 103% and an inhibition at 1 µM ([5]; read-out: Mean % Inhibition at 1 μM Compound-I, 1 μM (568.9 ng/mL)) of 99%.
